# Molecular target: T1, human TRPM8 (Homo sapiens, UniProt Q7Z2W7)
# Experiment: High-throughput FLIPR TETRA calcium fluorescence assay for TRPM8 antagonists in HEK293/hTRPM8 cells
# Format: cell-based
# Parameters: expressed in transfected cells
# Details: agonist Cooling Agent 10 at EC80, Ca2+ fluorescence
# Description: A functional cell-based assay for the identification of TRPM8 receptor antagonists, optimised to allow high throughput screening at FLIPR^TETRA, was developed in HEK293 cells by stable pure clone selection and functional characterization with a fluorescent calcium sensitive dye.
# TRPM8 was cloned into the multiple clonig site of pcDNA3 mammalian expression vector; the obtained construct pcDNA3/hTRPM8 was fully sequence verified and used for the transfection of HEK293 cell line. HEK293 cells stably transfected with TRPM8 gene were maintained in Minimum essential medium. The cells were transfected with the pcDNA3/hTRPM8 vector by electroporation and then selected with medium containing 0.8 mg/ml G418 for 10-15 days.
# The following commercial compounds were used as ligands: • Activator: Cooling Agent 10 (Takasago CAS N. 87061-04-9) • Blocker: Capsazepine (SIGMA cat #D—5879)
# The experimental activities were performed using FLIPR^TETRA instruments.
# HEK293 cells stably transfected with TRPM8 gene were maintained in Minimum essential medium.
# The TRPM8 cell line was analysed for the response to a library of compounds using a Ca^2+ mobilization-dependent fluorescence signal in 384 wells microtiter plate format. The analysis was performed using the FLIPR^TETRA (MDC) with the ICCD Camera.
# The execution of the assay involved the use of three microtiter plates:
# 1. Assay plate, containing cells loaded with dye and prepared as follows:
# Cells were seeded at 15000 c/well in Poly-D-Lysine coated 384 wells Microtiter Plates in complete medium (25 μl/well).
# 24 h after seeding, the cell plates were washed with Tyrode assay buffer by the Microplate Washer and 10 μL of Tyrode assay buffer was left in each well.
# Cells were then loaded with 10 μL/well of the Fluo-4 NW dye solution by CyBi®-Well pipettor. Each bottle of Fluo4-NW dye (Molecular Probes cat. #F36206, component A) was re-suspended in 8 mL of Tyrode assay buffer and supplemented with 100 μL of water-soluble probenecid (MolecularProbes cat.#F36206, component B).
# Dye loaded cell plates were incubated for 1 h at room temperature.
# 2. Compound Dilution Plate (FIG. 1), containing diluted test compounds, formulated as follows: • Column 1: wells containing Assay Buffer plus DMSO 0.5% final • Column 2: wells alternating Max Signal Control in first injection (Maximum Response: Cooling Agent 10 at EC100, 100 μM) and Min Signal Control in first injection (Assay buffer plus 0.5% DMSO final); • Columns 3-22: wells containing Assay Buffer plus 0.5% DMSO final. To these wells the compounds to be tested were added at 3× concentration. • Column 23: alternating wells of Max Signal Control in second injection (Assay buffer) and Min Signal Control in second injection (Antagonist Capsazepine IC100, 50 μM) in Assay buffer plus 0.5% DMSO final; • Column 24: wells containing Capsazepine (Antagonist) at 8 concentrations in duplicate at final concentrations of […] in Assay buffer plus 0.5% DMSO final.
# 3. Activator Plate (FIG. 2), containing agonist Cooling Agent 10 at EC80, formulated as follows: • Column 1: Cooling Agent 10 (Agonist) at 8 concentrations dose response in duplicate at final concentrations of […] in Assay buffer; • Columns 2-24: Cooling Agent 10 (Agonist) at EC80 (3 fold concentrated, 20 μM final) in Assay buffer.
# The test was carried out according to a procedure comprising the following steps: • 1. The samples contained in the wells of the Compound Plate were added to the corresponding wells of the Assay Plate by the FLIPR^TETRA, thus resulting in the addition in Columns 3-22 of the test compounds at 3× concentration to the cells of the assay plates. No mixing was performed in the assay wells and the signal of the emitted fluorescence was recorded for 300 seconds. • 2.
# T1 sequence (Q7Z2W7 whole entry): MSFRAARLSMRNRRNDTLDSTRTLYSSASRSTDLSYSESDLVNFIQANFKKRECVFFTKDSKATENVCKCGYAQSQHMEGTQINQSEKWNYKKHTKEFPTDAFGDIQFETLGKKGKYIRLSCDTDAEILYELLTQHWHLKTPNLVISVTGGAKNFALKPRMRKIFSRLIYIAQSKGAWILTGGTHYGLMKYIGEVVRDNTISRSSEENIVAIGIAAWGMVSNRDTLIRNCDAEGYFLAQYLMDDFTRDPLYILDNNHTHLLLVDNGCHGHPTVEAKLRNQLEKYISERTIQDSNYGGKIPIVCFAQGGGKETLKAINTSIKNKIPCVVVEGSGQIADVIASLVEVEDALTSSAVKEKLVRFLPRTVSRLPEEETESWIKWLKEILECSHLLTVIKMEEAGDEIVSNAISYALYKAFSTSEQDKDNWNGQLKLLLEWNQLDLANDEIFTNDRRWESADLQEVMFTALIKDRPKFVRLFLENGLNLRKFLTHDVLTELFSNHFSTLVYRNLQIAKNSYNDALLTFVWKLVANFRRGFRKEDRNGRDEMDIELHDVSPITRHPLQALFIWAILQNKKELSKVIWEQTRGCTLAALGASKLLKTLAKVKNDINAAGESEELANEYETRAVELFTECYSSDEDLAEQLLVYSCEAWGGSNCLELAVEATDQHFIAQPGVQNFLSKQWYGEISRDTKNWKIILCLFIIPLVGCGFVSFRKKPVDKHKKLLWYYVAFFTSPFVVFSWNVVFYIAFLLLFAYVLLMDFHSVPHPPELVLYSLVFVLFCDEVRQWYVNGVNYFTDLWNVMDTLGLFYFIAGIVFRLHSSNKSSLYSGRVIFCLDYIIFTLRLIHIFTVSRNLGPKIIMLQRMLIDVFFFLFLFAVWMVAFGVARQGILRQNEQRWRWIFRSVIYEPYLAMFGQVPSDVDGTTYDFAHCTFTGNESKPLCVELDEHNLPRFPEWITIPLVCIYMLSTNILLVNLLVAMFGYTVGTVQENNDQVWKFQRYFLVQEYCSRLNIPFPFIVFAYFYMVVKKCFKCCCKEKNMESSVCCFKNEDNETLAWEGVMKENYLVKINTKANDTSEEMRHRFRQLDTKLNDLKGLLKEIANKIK
row,Structure (SMILES),IC50 [µM]
1,"Clc1c(OCCNCc2cccs2)ccc2ccccc12 [Compound 5, 2-[(1-chloronaphthalen-2-yl)oxy]-N-(thiophen-2-ylmethyl)ethanaminium]",< 10
2,"Clc1c(OCCNCc2ccccn2)ccc2ccccc12 [Compound 6, 2-[(1-chloronaphthalen-2-yl)oxy]-N-(pyridin-2-ylmethyl)ethanaminium]",< 10
3,"CC(C)(COc1ccc2ccccc2c1Cl)NCc1ccco1 [Compound 8, 1-[(1-chloronaphthalen-2-yl)oxy]-N-(furan-2-ylmethyl)-2-methylpropan-2-amine]",< 10
4,"CC(C)(COc1ccc2ccccc2c1Cl)NCc1ccccn1 [Compound 13, 1-[(1-chloronaphthalen-2-yl)oxy]-2-methyl-N-(pyridin-2-ylmethyl)propan-2-amine]",< 10
5,"Cn1cccc1CNC(C)(C)COc1ccc2ccccc2c1Cl [Compound 14, 1-[(1-chloronaphthalen-2-yl)oxy]-2-methyl-N-[(1-methyl-1H-pyrrol-2-yl)methyl]propan-2-amine]",< 10
6,"O=S(=O)(CCNCc1ccco1)c1ccc2ccccc2c1Cl [Compound 25, 2-[(1-chloronaphthalen-2-yl)sulfonyl]-N-(furan-2-ylmethyl)ethanamine]",< 10
7,"Clc1c(CCCNCc2ccco2)ccc2ccccc12 [Compound 32, 3-(1-chloronaphthalen-2-yl)-N-(furan-2-ylmethyl)propan-1-amine]",< 10
8,"Cc1ccc(CNCCCc2ccc3ccccc3c2Cl)o1 [Compound 33, 3-(1-chloronaphthalen-2-yl)-N-[(5-methylfuran-2-yl)methyl]propan-1-amine]",< 10
9,"Clc1ccc(CNCCCc2ccc3ccccc3c2Cl)o1 [Compound 34, N-[(5-chlorofuran-2-yl)methyl]-3-(1-chloronaphthalen-2-yl)propan-1-amine]",< 10
10,"Clc1ccc(CNCCCc2ccc3ccccc3c2Cl)s1 [Compound 35, 3-(1-chloronaphthalen-2-yl)-N-[(5-chlorothiophen-2-yl)methyl]propan-1-amine]",< 10

# The remaining lines, values ahead:
row,IC50 [µM],Structure (SMILES)
1,< 10,"Fc1c(OCCNCc2ccco2)ccc2ccccc12 [Compound 48, 2-[(1-fluoronaphthalen-2-yl)oxy]-N-(furan-2-ylmethyl)ethanamine]"
2,< 10,"Fc1c(OCCNCc2cccs2)ccc2ccccc12 [Compound 52, 2-[(1-fluoronaphthalen-2-yl)oxy]-N-(thiophen-2-ylmethyl)ethanamine]"
3,< 10,"Fc1c(OCCNCc2ccccn2)ccc2ccccc12 [Compound 53, 2-[(1-fluoronaphthalen-2-yl)oxy]-N-(pyridin-2-ylmethyl)ethanamine]"
4,< 10,"N#Cc1ccc2c(Cl)c(OCCNCc3ccccn3)ccc2c1 [Compound 55, 5-chloro-6-{2-[(pyridin-2-ylmethyl)amino]ethoxy}naphthalene-2-carbonitrile]"
5,< 10,"N#Cc1ccc2c(Cl)c(OCCNCc3cccs3)ccc2c1 [Compound 60, 5-chloro-6-{2-[(thiophen-2-ylmethyl)amino]ethoxy}naphthalene-2-carbonitrile]"

# Molecular target: T1, human TRPM8
# Experiment: FLIPR384 capsazepine antagonist activity on menthol agonist response in selected TRPM8 clone
# Format: cell-based
# Parameters: expressed in transfected cells
# Details: FLIPR384, antagonist from 100 nM to 316 μM
# Description: The experimental activities were performed using FLIPR instruments.
# Patch clamp recordings were also obtained in voltage-clamp configuration on HEK/TRPM8 clones in order to verify the receptor pharmacology and to determine the agonist dose-response curve and EC50 value. HEK293 cells were […] having 1.5-2.5 MΩ resistance were used to record currents following drug application. […] No menthol-induced currents were recorded in non transfected HEK293 cells.
row,IC50 [µM],Structure (SMILES)
1,20,"Oc1cc2c(cc1O)CN(C(=S)NCCc1ccc(Cl)cc1)CCC2 [capsazepine, Capsazepine]"

# From US8906946B2, “TRPM8 receptor antagonists” (Dompe' S.p.A., priority 2011, dated 2014)
